Assay results from ChEMBL document CHEMBL1127801, “3-(2-(3-Pyridinyl)thiazolidin-4-oyl)indoles, a novel series of platelet activating factor antagonists” (J Med Chem, 1994).

Columns and labels:
Rattus norvegicus = experiment: In vivo antagonist activity for PAF-Induced cutaneous vascular permeability in the rat; type: functional
Mus musculus = experiment: In vivo antagonist activity against PAF-Induced paw edema in the mouse; type: functional
[1] = molecular target: Platelet-activating factor receptor (Oryctolagus cuniculus); experiment: Functional inhibition of PAF-induced platelet degranulation

Structure (SMILES) | ED50 (Rattus norvegicus) | ED50 (Mus musculus) | Kb [1]
CN(C)C(=O)n1cc(C(=O)[C@@H]2CSC(c3cccnc3)N2)c2ccc(OCc3ccc(F)cc3)cc21 (some centres undefined) | 0.355 mg/kg |  | 
O=C(c1c[nH]c2cc(-c3ccccc3)ccc12)[C@@H]1CSC(c2cccnc2)N1 (some centres undefined) | 2.3 mg/kg | 5.39 mg/kg | 
CCCOc1c(OC)cc([C@@H]2CC[C@@H](c3cc(OC)c(OC)c(OC)c3)O2)cc1S(=O)(=O)CCO | 1.89 mg/kg | 11.5 mg/kg | 
O=C(c1c[nH]c2cc(OCc3ccccc3)ccc12)[C@@H]1CSC(c2cccnc2)N1 (some centres undefined) | 0.526 mg/kg | 1.47 mg/kg | 0.0929 nM
COc1cc(C(=O)c2cccc(NC(=O)[C@@H]3CSC(c4cccnc4)N3)c2)cc(OC)c1OC (some centres undefined) | 2.06 mg/kg | 0.476 mg/kg | 0.415 nM
CC(C)(C)OC(=O)n1cc(C(=O)[C@@H]2CSC(c3cccnc3)N2)c2ccccc21 (some centres undefined) | 4.96 mg/kg | 0.372 mg/kg | 0.111 nM
O=C(c1cn(C(=O)N2CCOCC2)c2cc(OCc3ccccc3)ccc12)[C@@H]1CSC(c2cccnc2)N1 (some centres undefined) | 0.762 mg/kg | 3.7 mg/kg | 
O=C(c1c[nH]c2cc(OCc3ccc(F)cc3)ccc12)[C@@H]1CSC(c2cccnc2)N1 (some centres undefined) | 0.273 mg/kg |  | 
CC(C)(C)NC(=O)n1cc(C(=O)[C@@H]2CSC(c3cccnc3)N2)c2ccccc21 (some centres undefined) | 6.28 mg/kg |  | 
CN(C)C(=O)Cn1cc(C(=O)[C@@H]2CSC(c3cccnc3)N2)c2ccccc21 (some centres undefined) | 0.384 mg/kg |  | 
CN(C)C(=O)n1cc(C(=O)[C@@H]2CSC(c3cccnc3)N2)c2ccc(Cl)cc21 (some centres undefined) | 1.6 mg/kg |  | 
CCOC(=O)C1=C(c2ccc(-n3c(C)nc4cnccc43)cc2)NC(C)=C(C(=O)Nc2ccccn2)C1c1ccccc1Cl (centres undefined) | 0.232 mg/kg |  | 
CN(C)C(=O)n1cc(C(=O)[C@@H]2CSC(c3cccnc3)N2)c2ccccc21 (some centres undefined) | 1.3 mg/kg | 0.979 mg/kg | 0.291 nM
O=C(c1cn(C(=O)N2CCOCC2)c2ccccc12)[C@@H]1CSC(c2cccnc2)N1 (some centres undefined) |  | 2.63 mg/kg | 
Cc1ccc2c(c1)c(C(=O)[C@@H]1CSC(c3cccnc3)N1)c(C)n2C(=O)OC(C)(C)C.O=C(O)C(=O)O (some centres undefined) | 9.51 mg/kg |  | 
O=C(c1cn(Cc2ccccc2)c2ccccc12)[C@@H]1CSC(c2cccnc2)N1 (some centres undefined) |  |  | 22.1 nM
CN(C)C(=O)n1cc(C(=O)[C@@H]2CSC(c3cccnc3)N2)c2ccc(C#Cc3ccccc3)cc21 (some centres undefined) | 0.885 mg/kg |  | 
O=C(c1c[nH]c2cc(F)ccc12)[C@@H]1CSC(c2cccnc2)N1 (some centres undefined) | 2.69 mg/kg |  | 
Cc1ccc2c(C(=O)[C@@H]3CSC(c4cccnc4)N3)cn(C(=O)OC(C)(C)C)c2c1 (some centres undefined) | 5.22 mg/kg | 1.19 mg/kg | 
O=C(O)C(=O)O.O=C(c1cn(C(=O)OCc2ccccc2)c2ccccc12)[C@@H]1CSC(c2cccnc2)N1 (some centres undefined) |  | 1.79 mg/kg | 
CCS(=O)(=O)n1cc(C(=O)[C@@H]2CSC(c3cccnc3)N2)c2ccc(OCc3ccccc3)cc21 (some centres undefined) | 0.862 mg/kg |  | 
CC(C)(C)OC(=O)n1cc(C(=O)[C@@H]2CSC(c3cccnc3)N2)c2ccc(OCc3ccccc3)cc21 (some centres undefined) | 0.429 mg/kg | 1.3 mg/kg | 1.19 nM
Cc1[nH]c2ccccc2c1C(=O)[C@@H]1CSC(c2cccnc2)N1 (some centres undefined) |  |  | 1.99 nM
Cc1c(C(=O)[C@@H]2CSC(c3cccnc3)N2)c2ccccc2n1C(=O)OC(C)(C)C.O=C(O)C(=O)O (some centres undefined) |  | 0.873 mg/kg | 
O=C(c1c[nH]c2cc(Br)ccc12)[C@@H]1CSC(c2cccnc2)N1 (some centres undefined) | 1.07 mg/kg |  | 
Cc1nnc2n1-c1sc(CCC(=O)N3CCOCC3)cc1C(c1ccccc1Cl)=NC2 [APAFANT] | 22.3 mg/kg | 2.2 mg/kg | 

Structure (SMILES) | ED50 (Rattus norvegicus) | ED50 (Mus musculus) | Kb [1]
CN(C)C(=O)n1cc(C(=O)[C@@H]2CSC(c3cccnc3)N2)c2ccc(-c3ccc(F)cc3)cc21 (some centres undefined) | 0.76 mg/kg |  | 
CN(C)C(=O)n1cc(C(=O)[C@@H]2CSC(c3cccnc3)N2)c2ccc(F)cc21 (some centres undefined) | 0.945 mg/kg |  | 
O=C(c1ccccc1)c1cccc(NC(=O)c2ccn3c2CSC3c2cccnc2)c1 (centres undefined) | 2.27 mg/kg | 4.07 mg/kg | 
O=C([C@@H]1CSC(c2cccnc2)N1)n1ccc2ccc(OCc3ccccc3)cc21 (some centres undefined) |  |  | 12 nM
CN(C)C(=O)n1cc(C(=O)[C@@H]2CSC(c3cccnc3)N2)c2ccc(C(=O)c3ccccc3)cc21 (some centres undefined) | 0.521 mg/kg |  | 
Cc1nnc2n1C1=C(C(c3ccccc3Cl)=NC2C)C2CCN(C(=O)C3CC3)CC2S1 (centres undefined) | 0.15 mg/kg | 1.44 mg/kg | 
CN(C)C(=O)n1cc(C(=O)[C@@H]2CSC(c3cccnc3)N2)c2cccc(OCc3ccccc3)c21 (some centres undefined) |  | 0.091 mg/kg | 
CCS(=O)(=O)n1cc(C(=O)[C@@H]2CSC(c3cccnc3)N2)c2ccccc21 (some centres undefined) |  |  | 1.59 nM
Cl.Cl.O=C(C1CSC(c2cccnc2)N1)n1ccc2c(Cl)cccc21 (centres undefined) | 15 mg/kg |  | 
CC(C)(C)C(=O)n1cc(C(=O)[C@@H]2CSC(c3cccnc3)N2)c2ccccc21 (some centres undefined) |  | 15.8 mg/kg | 
O=C(O)C(F)(F)F.O=C(c1c[nH]c2c(OCc3ccccc3)cccc12)[C@@H]1CSC(c2cccnc2)N1 (some centres undefined) | 1.41 mg/kg | 6.98 mg/kg | 0.571 nM
CN(C)C(=O)n1cc(C(=O)[C@@H]2CSC(c3cccnc3)N2)c2ccc(-c3cccnc3)cc21 (some centres undefined) | 4.48 mg/kg |  | 
Cc1nnc2n1-c1sc3c(c1C(c1ccccc1Cl)=NC2)CC(C(=O)N1CCOCC1)C3 (centres undefined) [BEPAFANT] | 0.423 mg/kg | 0.459 mg/kg | 
O=C(O)C(=O)O.O=C(c1c[nH]c2ccccc12)[C@@H]1CSC(c2cccnc2)N1 (some centres undefined) | 3.65 mg/kg | 5.32 mg/kg | 
CN(C(=O)n1cc(C(=O)[C@@H]2CSC(c3cccnc3)N2)c2ccccc21)c1ccccc1 (some centres undefined) |  |  | 1.93 nM
CN(C)C(=O)n1cc(C(=O)[C@@H]2CSC(c3cccnc3)N2)c2ccc(OCc3ccccc3)cc21.O=C(O)C(=O)O (some centres undefined) | 0.53 mg/kg | 0.079 mg/kg | 
CN(C)C(=O)n1cc(C(=O)[C@@H]2CSC(c3cccnc3)N2)c2ccc(-c3ccccc3)cc21 (some centres undefined) | 1.12 mg/kg | 0.808 mg/kg | 
COc1ccc2c(C(=O)[C@@H]3CSC(c4cccnc4)N3)cn(C(=O)OC(C)(C)C)c2c1.O=C(O)C(=O)O (some centres undefined) | 1.9 mg/kg |  | 
O=C(c1cn(C(=O)c2ccc(Cl)cc2)c2ccccc12)[C@@H]1CSC(c2cccnc2)N1 (some centres undefined) | 3.19 mg/kg |  | 
CNC(=O)n1cc(C(=O)[C@@H]2CSC(c3cccnc3)N2)c2ccccc21.O=C(O)C(=O)O.O=C(O)C(=O)O (some centres undefined) | 1.68 mg/kg |  | 
COC(=O)n1cc(C(=O)[C@@H]2CSC(c3cccnc3)N2)c2ccccc21 (some centres undefined) | 5.19 mg/kg | 1.97 mg/kg | 
O=C(C1CSC(c2cccnc2)N1)n1ccc2cc(OCc3ccccc3)ccc21 (centres undefined) |  |  | 1.95 nM
CCN(CC)C(=O)n1cc(C(=O)[C@@H]2CSC(c3cccnc3)N2)c2ccccc21 (some centres undefined) | 0.616 mg/kg | 0.52 mg/kg | 
O=C(c1ccccc1)c1cccc(NC(=O)[C@@H]2CSC(c3cccnc3)N2)c1 (some centres undefined) | 12.9 mg/kg | 1.73 mg/kg | 4.14 nM
COc1ccc2c(C(=O)[C@@H]3CSC(c4cccnc4)N3)c[nH]c2c1 (some centres undefined) |  | 3.7 mg/kg | 
CN(C)C(=O)n1cc(C(=O)[C@@H]2CSC(c3cccnc3)N2)c2ccc(Oc3ccc(F)cc3)cc21 (some centres undefined) | 0.108 mg/kg |  | 
